# Several values for one entry are separate records, joined by “and”; a condition that tells them apart may be missing. Equal values may be shown once.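 Where inhibition never reached the appropriate level, the endpoint shown equals the highest concentration tested. Otherwise, values were interpolated linearly from a five-concentration, 48-hour dose response in 96-well plates. GI50 = concentration required for 50% inhibition of growth. TGI denotes the concentration required for complete inhibition of growth.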
# What was measured:
# Assay in all cases: inhibition of tumour cell growth, NCI panel, 48 h
# [1] = tested on: UACC-257 melanoma
# [2] = tested on: HCC-2998 colon
# [3] = tested on: MALME-3M melanoma
# [4] = tested on: 786-0 renal
# [5] = tested on: KM20L2 colon
# [6] = tested on: M19-MEL melanoma
# [7] = tested on: SF-539 CNS
# [8] = tested on: ACHN renal
# [9] = tested on: OVCAR-3 ovarian
# [10] = tested on: DLD-1 colon
SMILES,TGI [1],TGI [2] [µM],TGI [3],TGI [4],TGI [5],TGI [6],TGI [7],TGI [8],TGI [9],TGI [10],GI50 [1] [µM],GI50 [2] [µM],GI50 [3] [µM],GI50 [4] [µM],GI50 [5] [µM],GI50 [6] [µM],GI50 [7] [µM],GI50 [8] [µM],GI50 [9] [µM],GI50 [10] [µM]
Cc1c(CC/C(=N\Nc2ccc([N+](=O)[O-])cc2[N+](=O)[O-])c2ccccc2)c2ccccc2n1C,> 100 µM,> 100,> 100 µM,> 100 µM,> 100 µM,> 100 µM,> 100 µM,> 100 µM,> 100 µM,> 100 µM,–,–,–,–,–,–,–,–,–,–
O=NN(CCCl)C(=O)N[C@H]1CCCC[C@@H]1Cl,–,> 100,> 100 µM,> 100 µM,> 100 µM,> 100 µM,> 100 µM,> 100 µM,> 100 µM,> 100 µM,–,–,–,–,–,–,–,–,–,–
c1ccc2c(c1)[nH]c1c2ncc2[nH]c3ccccc3c21,–,7.07,47.1 µM,5.61 µM,12.5 µM,15.8 µM,7.21 µM,16.3 µM,6.96 µM,19.7 µM,–,–,–,–,–,–,–,–,–,–
CC1=Nc2ccccc2C12C(c1ccccc1)C(c1ccccc1)C(=O)N1c3ccccc3CC12 (centres undefined),> 100 µM,> 100,> 100 µM,> 100 µM,> 100 µM,–,> 100 µM,> 100 µM,> 100 µM,> 100 µM,–,–,–,–,–,–,–,–,–,–
CCOC(=O)C(C(=O)OCC)=c1sc(=C(C(=O)OCC)C(=O)OCC)s1,> 100 µM,> 100,> 100 µM,> 100 µM,> 100 µM,> 100 µM,–,> 100 µM,> 100 µM,> 100 µM,–,–,–,–,–,–,–,–,–,–
C[CH2][Sn]([CH2]C)([O]C(=O)c1ccc(F)cc1)[O][Sn]([CH2]C)([CH2]C)[O]C(=O)c1ccc(F)cc1,> 100 µM,> 100,32 µM,> 100 µM,> 100 µM,> 100 µM,> 100 µM,> 100 µM,> 100 µM,> 100 µM,41.1,> 100,16.9,53.6,> 100,45.9,67.5,79.8,> 100,23.6
COC(C)(C)[C@H](O)C(O)CC(C)[C@@H]1CCC23CC12CCC1[C@@]2(C)CCC(OC(C)=O)C(C)(C)C2CC(OC2OC(COC(C)=O)C(O)C(O)C2O)[C@]13C (some centres undefined),11.7 µM and 26 µM,4.94,17.1 µM and 26 µM,15 µM and 25.2 µM,2.12 µM and 7.94 µM,10.2 µM and 13.8 µM,9.41 µM and 17.2 µM,11.4 µM and 20 µM,10.8 µM and 15.9 µM,6.29 µM and 9.73 µM,11.5,–,12.8,11.5,2.63,4.04,5.66,6.08,4.26,3.13
CCCCCC/C=C1\CCC(CN(C)C)C1=O (centres undefined),17.7 µM,18.3,20.7 µM,3.99 µM,23.3 µM,7.25 µM,28.1 µM,22.2 µM,17.7 µM,6.18 µM,–,–,–,–,–,–,–,–,–,–
Nc1nc(-c2ccccc2)cc(-c2ccc(Cl)cc2)c1-c1nc2ccccc2o1,35.1 µM,25.8,35.3 µM,22.3 µM,–,–,32.3 µM,23 µM,30.8 µM,–,19.5,10.3,19.2,10.6,–,–,17.5,11.1,15.7,–
CCOCCOC[C@H]1CCCN(c2ccnc3sc(C(N)=O)c(N)c23)C1,> 100 µM,> 100,> 100 µM,> 100 µM,–,–,> 100 µM,> 100 µM,> 100 µM,–,12.4,> 100,86.6,> 100,–,–,> 100,9.95,23.6,–
N#CSc1ccc(S(N)(=O)=O)cc1,> 100 µM,> 100,> 100 µM,65.2 µM,–,–,68 µM,> 100 µM,> 100 µM,–,–,–,–,–,–,–,–,–,–,–
O=S(=O)(Nc1ccccn1)c1ccc(N=Nc2ccc(O)c3ncccc23)cc1,8.02 µM,18.4,7.03 µM,13.6 µM,–,–,4.18 µM,9.64 µM,11.4 µM,–,1.39,3.73,2.59,3.42,–,–,0.54,0.976,1.13,–
Cc1ccc(C2=NN(c3ccc(S(N)(=O)=O)cc3)C(c3cn(-c4ccccc4)nc3-c3ccccc3)C2)cc1 (centres undefined),> 100 µM,> 100,> 100 µM,> 100 µM,–,–,> 100 µM,> 100 µM,> 100 µM,–,29.6,13.8,81,4.69,–,–,> 100,9.51,14.3,–
C[C@@H]1OCC2(CCN(c3cnc(Sc4ccnc(N)c4Cl)c(N)n3)CC2)[C@@H]1N,> 100 µM,> 100,> 100 µM,> 100 µM,–,–,> 100 µM,> 100 µM,> 100 µM,–,> 100,> 100,> 100,98.6,–,–,24.2,4.71,> 100,–
CCOC(=O)c1cc(OC(=O)CC)c2c(OC)ccc(OC)c2c1,–,> 100,> 100 µM,> 100 µM,–,> 100 µM,> 100 µM,> 100 µM,–,> 100 µM,–,–,–,–,–,–,–,–,–,–
COc1ccc2nc(-c3cc4c([nH]c5ccccc54)c(-c4ccc(F)c(F)c4)n3)[nH]c2c1,22 µM,25.3,34.3 µM,24.9 µM,–,–,34.6 µM,12.6 µM,4.12 µM,–,5.68,8.96,16.3,10.2,–,–,15.5,3.2,1.94,–
O=c1ccnc(SCc2ccc(Cl)cc2)[nH]1,> 100 µM,66.2,> 100 µM,> 100 µM,–,–,> 100 µM,> 100 µM,> 100 µM,–,–,–,–,–,–,–,–,–,–,–
Oc1c(CN2CCN(c3ccccc3F)CC2)cc(Br)c2cccnc12,24.1 µM,15.1,9.46 µM,12.6 µM,–,–,5.6 µM,13.7 µM,21.2 µM,–,2.06,2.87,1.89,2.42,–,–,1.02,0.495,0.576,–
